Experimental data as given in PubChem BioAssay (NCI).
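Five compound concentrations were applied to cells in 96-well plates for 48 hours; endpoints were derived by simple linear interpolation of the resulting dose-response curve. TGI denotes the concentration required for complete inhibition of growth.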

Experiments:
Experiment in all cases: inhibition of tumour cell growth, NCI panel, 48 h
[1] = test system: 786-0 renal
[2] = test system: A498 renal
[3] = test system: A549 NSCLC
[4] = test system: ACHN renal
[5] = test system: BT-549 breast
[6] = test system: CAKI-1 renal
[7] = test system: CCRF-CEM leukemia
[8] = test system: COLO 205 colon
[9] = test system: DU-145 prostate
[10] = test system: EKVX NSCLC
[11] = test system: HCC-2998 colon
[12] = test system: HCT-116 colon
[13] = test system: HCT-15 colon
[14] = test system: HL-60(TB) leukemia
[15] = test system: HOP-62 NSCLC
[16] = test system: HS 578T breast
[17] = test system: HT29 colon
[18] = test system: IGROV1 ovarian
[19] = test system: K-562 leukemia
[20] = test system: KM12 colon
[21] = test system: LOX IMVI melanoma
[22] = test system: M14 melanoma
[23] = test system: MALME-3M melanoma
[24] = test system: MCF7 breast
[25] = test system: MDA-MB-231 breast
[26] = test system: MDA-MB-435
[27] = test system: MDA-N
[28] = test system: MOLT-4 leukemia
[29] = test system: NCI-H226 lung
[30] = test system: NCI-H23 lung
[31] = test system: NCI-H460 lung
[32] = test system: NCI-H522 lung
[33] = test system: NCI/ADR-RES ovarian
[34] = test system: OVCAR-3 ovarian
[35] = test system: OVCAR-4 ovarian
[36] = test system: OVCAR-5 ovarian
[37] = test system: OVCAR-8 ovarian
[38] = test system: PC-3 prostate
[39] = test system: RPMI-8226 leukemia
[40] = test system: RXF 393 renal
[41] = test system: SF-268 CNS
[42] = test system: SF-295 CNS
[43] = test system: SK-MEL-2 melanoma
[44] = test system: SK-MEL-28 melanoma
[45] = test system: SK-MEL-5 melanoma
[46] = test system: SN12C renal
[47] = test system: SNB-19 CNS
[48] = test system: SR leukemia
[49] = test system: SW-620 colon
[50] = test system: T-47D breast
[51] = test system: TK-10 renal
[52] = test system: U251 CNS
[53] = test system: UACC-257 melanoma
[54] = test system: UACC-62 melanoma
[55] = test system: UO-31 renal

Q: How did the TGI [1] turn out when `C=C1C(=O)C([Si](C)(C)C)=C2C=C(C)C3(CC3)C12C` (stereo not given) was run?
A: > 100 µM

Q: What about the TGI [2] of the same compound?
A: > 100 µM

Q: What about the TGI [3] of the same compound?
A: > 100 µM

Q: And the TGI [4]?
A: > 100 µM

Q: What about the TGI [5] of the same compound?
A: 55 µM

Q: What about the TGI [6] of the same compound?
A: > 100 µM

Q: And the TGI [7]?
A: 11 µM

Q: And the TGI [8]?
A: 36.4 µM

Q: And the TGI [9]?
A: > 100 µM

Q: And the TGI [10]?
A: 42.2 µM

Q: And the TGI [11]?
A: 70.2 µM

Q: What about the TGI [12] of the same compound?
A: > 100 µM

Q: And the TGI [13]?
A: > 100 µM

Q: And the TGI [14]?
A: 34.8 µM

Q: What about the TGI [15] of the same compound?
A: > 100 µM

Q: What about the TGI [16] of the same compound?
A: > 100 µM

Q: And the TGI [17]?
A: 48.7 µM

Q: What about the TGI [18] of the same compound?
A: > 100 µM

Q: What about the TGI [19] of the same compound?
A: 54.1 µM

Q: And the TGI [20]?
A: > 100 µM

Q: What about the TGI [21] of the same compound?
A: 89 µM

Q: And the TGI [22]?
A: > 100 µM

Q: What about the TGI [23] of the same compound?
A: 78.7 µM

Q: And the TGI [24]?
A: 70.4 µM

Q: What about the TGI [25] of the same compound?
A: 84.6 µM

Q: And the TGI [26]?
A: 64.3 µM

Q: And the TGI [27]?
A: > 100 µM

Q: What about the TGI [28] of the same compound?
A: 11.9 µM

Q: And the TGI [29]?
A: > 100 µM

Q: What about the TGI [30] of the same compound?
A: > 100 µM

Q: What about the TGI [31] of the same compound?
A: > 100 µM

Q: And the TGI [32]?
A: 66.2 µM

Q: What about the TGI [33] of the same compound?
A: 44.2 µM

Q: What about the TGI [34] of the same compound?
A: > 100 µM

Q: What about the TGI [35] of the same compound?
A: > 100 µM

Q: And the TGI [36]?
A: > 100 µM

Q: And the TGI [37]?
A: > 100 µM

Q: And the TGI [38]?
A: 42.5 µM

Q: What about the TGI [39] of the same compound?
A: 15.3 µM

Q: And the TGI [40]?
A: 60.5 µM

Q: What about the TGI [41] of the same compound?
A: > 100 µM

Q: And the TGI [42]?
A: > 100 µM

Q: What about the TGI [43] of the same compound?
A: 61.1 µM

Q: What about the TGI [44] of the same compound?
A: > 100 µM

Q: What about the TGI [45] of the same compound?
A: > 100 µM

Q: What about the TGI [46] of the same compound?
A: > 100 µM

Q: And the TGI [47]?
A: > 100 µM

Q: And the TGI [48]?
A: 11.7 µM

Q: And the TGI [49]?
A: > 100 µM

Q: What about the TGI [50] of the same compound?
A: > 100 µM

Q: What about the TGI [51] of the same compound?
A: > 100 µM

Q: And the TGI [52]?
A: > 100 µM

Q: What about the TGI [53] of the same compound?
A: > 100 µM

Q: And the TGI [54]?
A: > 100 µM

Q: What about the TGI [55] of the same compound?
A: > 100 µM
